Experimental data reported in patent publication US20080090845A1, “Haloalkyl-substituted pyrimidinone derivatives” (Neurogen Corporation, priority 2006, published 2008).
Like-named read-outs stand apart in the source and are kept apart here.

Molecular target: T1, human capsaicin receptor (Homo sapiens, UniProt Q8NER1)
T1 construct: pBK-CMV expression construct encoding the full length human capsaicin receptor; expressed in transfected cells
Assay: Calcium mobilization assay, determination of antagonist activity (Example 6)
Type: cell-based
Details: cells expressing human capsaicin receptor, capsaicin-induced fluorescence response
Protocol: A cDNA encoding full length human capsaicin receptor (SEQ ID NO:1, 2 or 3 of U.S. Pat. No. 6,482,611) is subcloned in the plasmid pBK-CMV (Stratagene, La Jolla, Calif.) for recombinant expression in mammalian cells.
Human embryonic kidney (HEK293) cells are transfected with the pBK-CMV expression construct encoding the full length human capsaicin receptor using standard methods. The transfected cells are selected for two weeks in media containing G418 (400 μg/ml) to obtain a pool of stably transfected cells. Independent clones are isolated from this pool by limiting dilution to obtain clonal stable cell lines for use in subsequent experiments.
Cells transfected with expression plasmids (as described in Example 4) and thereby expressing human capsaicin receptor are seeded and grown to 70-90% confluency in FALCON black-walled, clear-bottomed 96-well plates (#3904, BECTON-DICKINSON, Franklin Lakes, N.J.). The culture medium is emptied from the 96 well plates and FLUO-3 AM calcium sensitive dye (Molecular Probes, Eugene, Oreg.) is added to each well (dye solution: 1 mg FLUO-3 AM, 440 μl DMSO and 440 μl 20% pluronic acid in DMSO diluted 1:250 in Krebs-Ringer HEPES (KRH) buffer (25 mM HEPES, 5 mM KCl, 0.96 mM NaH2PO4, 1 mM MgSO4, 2 mM CaCl2, 5 mM glucose, 1 mM probenecid, pH 7.4), 50 μl diluted solution per well). Plates are covered with aluminum foil and incubated at 37° C. for 1-2 hours in an environment containing 5% CO2. After the incubation, the dye is emptied from the plates, and the cells are washed once with KRH buffer, and resuspended in KRH buffer.
To measure the ability of a test compound to agonize or antagonize a calcium mobilization response in cells expressing capsaicin receptors to capsaicin or other vanilloid agonist, the EC50 of the agonist capsaicin is first determined. An additional 20 μl of KRH buffer and 1 μl DMSO is added to each well of cells, prepared as described above. 100 μl capsaicin in KRH buffer is automatically transferred by the FLIPR instrument to each well. Capsaicin-induced calcium mobilization is monitored using either FLUOROSKAN ASCENT (Labsystems; Franklin, Mass.) or FLIPR (fluorometric imaging plate reader system; Molecular Devices, Sunnyvale, Calif.) instruments. Data obtained between 30 and 60 seconds after agonist application are used to generate an 8-point concentration response curve, with final capsaicin concentrations of 1 nM to 3 μM. KALEIDAGRAPH software (Synergy Software, Reading, Pa.) is used to fit the data to the equation: y=a*(1/(1+(b/x)^c)) to determine the 50% excitatory concentration (EC50) for the response. In this equation, y is the maximum fluorescence signal, x is the concentration of the agonist or antagonist (in this case, capsaicin), a is the Emax, b corresponds to the EC50 value and c is the Hill coefficient. Determination of Agonist Activity
Test compounds are dissolved in DMSO, diluted in 20 μl KRH buffer so that the final concentration of test compounds in the assay well is between 1 μM and 5 μM, and added to cells prepared as described above. The 96 well plates containing prepared cells and test compounds are incubated in the dark, at room temperature for 0.5 to 6 hours. It is important that the incubation not continue beyond 6 hours. Just prior to determining the fluorescence response, 100 μl capsaicin in KRH buffer at twice the EC50 concentration determined as described above is automatically added by the FLIPR instrument to each well of the 96 well plate for a final sample volume of 200 μl and a final capsaicin concentration equal to the EC50. The final concentration of test compounds in the assay wells is between 1 μM and 5 μM. […] The concentration of antagonist required to provide a 50% decrease, relative to the response observed in the presence of capsaicin and without antagonist, is the IC50 for the antagonist, and is preferably below 1 micromolar, 100 nanomolar, 10 nanomolar or 1 nanomolar.

[1] = read-out: IC50 determined as described in Example 6

T1 sequence (Q8NER1 whole entry): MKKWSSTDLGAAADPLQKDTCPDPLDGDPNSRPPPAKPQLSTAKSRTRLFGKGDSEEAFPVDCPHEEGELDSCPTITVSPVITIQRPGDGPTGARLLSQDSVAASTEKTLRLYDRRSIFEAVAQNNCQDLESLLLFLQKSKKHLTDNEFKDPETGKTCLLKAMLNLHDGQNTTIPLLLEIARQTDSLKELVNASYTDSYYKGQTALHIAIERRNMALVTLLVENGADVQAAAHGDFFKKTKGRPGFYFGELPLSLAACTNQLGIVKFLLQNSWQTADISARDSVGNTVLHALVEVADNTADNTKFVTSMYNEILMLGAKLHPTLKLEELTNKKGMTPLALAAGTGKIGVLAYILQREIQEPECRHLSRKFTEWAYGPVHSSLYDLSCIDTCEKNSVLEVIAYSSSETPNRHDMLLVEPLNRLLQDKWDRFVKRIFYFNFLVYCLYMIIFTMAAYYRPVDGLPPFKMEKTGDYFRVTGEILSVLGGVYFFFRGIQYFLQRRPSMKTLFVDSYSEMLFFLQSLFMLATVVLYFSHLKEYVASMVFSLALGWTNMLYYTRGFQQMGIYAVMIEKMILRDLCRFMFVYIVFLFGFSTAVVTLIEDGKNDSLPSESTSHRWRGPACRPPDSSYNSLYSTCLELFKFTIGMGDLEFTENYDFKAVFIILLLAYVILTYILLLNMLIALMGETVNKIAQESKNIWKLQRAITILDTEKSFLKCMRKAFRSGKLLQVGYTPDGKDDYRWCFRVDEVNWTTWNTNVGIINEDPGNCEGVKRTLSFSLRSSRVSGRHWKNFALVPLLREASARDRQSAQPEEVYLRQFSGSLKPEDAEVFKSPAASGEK

| IC50 (read-out: IC50) | IC50 [1] | Structure (SMILES) |
| --- | --- | --- |
| ≤ 100 nM |  | CC(CCc1nc2c(ncn2C)c(=O)n1-c1ccc(F)cc1)C(F)(F)F (stereo not shown) [Compound 19, 1-(4-fluorophenyl)-9-methyl-2-(4,4,4-trifluoro-3-methylbutyl)-1,9-dihydro-6H-purin-6-one] |
| ≤ 100 nM |  | CCn1cnc2c(=O)n(-c3ccc(C#N)cc3)c(CCC(C)C(F)(F)F)nc21 (stereo not shown) [Compound 34, 4-[9-ethyl-6-oxo-2-(4,4,4-trifluoro-3-methylbutyl)-6,9-dihydro-1H-purin-1-yl]benzonitrile] |
| ≤ 100 nM |  | C[C@H](Cc1nc2c(ncn2C)c(=O)n1-c1ccc(Cl)cc1)CC(F)(F)F [Compound 30, 1-(4-chlorophenyl)-9-methyl-2-[(2R)-4,4,4-trifluoro-2-methylbutyl]-1,9-dihydro-6H-purin-6-one] |
| ≤ 100 nM |  | CCn1cnc2c(=O)n(-c3ccc(F)cc3)c(CCC(C)C(F)(F)F)nc21 (stereo not shown) [Compound 18, 9-ethyl-1-(4-fluorophenyl)-2-(4,4,4-trifluoro-3-methylbutyl)-1,9-dihydro-6H-purin-6-one] |
| ≤ 100 nM |  | CC(CCc1nc2c(ncn2CC(F)F)c(=O)n1-c1ccc(Cl)cc1)C(F)(F)F (stereo not shown) [Compound 23, 1-(4-chlorophenyl)-9-(2,2-difluoroethyl)-2-(4,4,4-trifluoro-3-methylbutyl)-1,9-dihydro-6H-purin-6-one] |
| ≤ 100 nM |  | CC(Cc1nc2c(ncn2C)c(=O)n1-c1ccc(C#N)cc1)C(F)(F)F (stereo not shown) [Compound 37, 4-[9-methyl-6-oxo-2-(3,3,3-trifluoro-2-methylpropyl)-6,9-dihydro-1H-purin-1-yl]benzonitrile] |
| ≤ 100 nM |  | C[C@H](CCc1nc2c(ncn2C)c(=O)n1-c1ccc(Cl)cc1)C(F)(F)F [Compound 33, 1-(4-chlorophenyl)-9-methyl-2-[(3R)-4,4,4-fluoro-3-methylbutyl]-1,9-dihydro-6H-purin-6-one] |
| ≤ 100 nM |  | C[C@@H](CCc1nc2c(ncn2C)c(=O)n1-c1ccc(Cl)cc1)C(F)(F)F [Compound 32, 1-(4-chlorophenyl)-9-methyl-2-[(3S)-4,4,4-fluoro-3-methylbutyl]-1,9-dihydro-6H-purin-6-one] |
|  | ≤ 100 nM | C[C@H](Cc1nc2c(ncn2C)c(=O)n1-c1ccc(Cl)cc1)C(F)(F)F [Compound 6, (R)-1-(4-Chlorophenyl)-9-methyl-2-(3,3,3-trifluoro-2-methylpropyl)-1H-purin-6(9H)-one] |
| ≤ 100 nM |  | CC(Cc1nc2c(ncn2C)c(=O)n1-c1ccc(Cl)cc1)C(F)(F)F (stereo not shown) [Compound 9, 1-(4-chlorophenyl)-9-methyl-2-(3,3,3-trifluoro-2-methylpropyl)-1,9-dihydro-6H-purin-6-one] |
| ≤ 100 nM |  | CC(CCc1nc2c(ncn2C)c(=O)n1-c1ccc(C#N)cc1)C(F)(F)F (stereo not shown) [Compound 28, 4-[9-methyl-6-oxo-2-(4,4,4-trifluoro-3-methylbutyl)-6,9-dihydro-1H-purin-1-yl]benzonitrile] |
| ≤ 100 nM |  | CC(CCc1nc2c(ncn2C)c(=O)n1-c1ccc(Cl)cc1)C(F)(F)F (stereo not shown) [Compound 17, 1-(4-chlorophenyl)-9-methyl-2-(4,4,4-trifluoro-3-methylbutyl)-1,9-dihydro-6H-purin-6-one] |
| ≤ 100 nM |  | CCn1cnc2c(=O)n(-c3ccc(Cl)cc3)c(CC(C)C(F)(F)F)nc21 (stereo not shown) [Compound 8, 1-(4-chlorophenyl)-9-ethyl-2-(3,3,3-trifluoro-2-methylpropyl)-1,9-dihydro-6H-purin-6-one] |
| ≤ 100 nM |  | CC(Cc1nc2c(ncn2C)c(=O)n1-c1ccc(Cl)cc1)CC(F)(F)F (stereo not shown) [Compound 12, 1-(4-chlorophenyl)-9-methyl-2-(4,4,4-trifluoro-2-methylbutyl)-1,9-dihydro-6H-purin-6-one] |

More lines, now with the values behind:

| Structure (SMILES) | IC50 (read-out: IC50) | IC50 [1] |
| --- | --- | --- |
| CC(CCc1nc2c(ncn2CC(F)F)c(=O)n1-c1ccc(F)cc1)C(F)(F)F (stereo not shown) [Compound 27, 9-(2,2-difluoroethyl)-1-(4-fluorophenyl)-2-(4,4,4-trifluoro-3-methylbutyl)-1,9-dihydro-6H-purin-6-one] | ≤ 100 nM |  |
| CCn1cnc2c(=O)n(-c3ccc(C#N)cc3)c(CC(C)CC(F)(F)F)nc21 (stereo not shown) [Compound 31, 4-[9-ethyl-6-oxo-2-(4,4,4-trifluoro-2-methylbutyl)-6,9-dihydro-1H-purin-1-yl]benzonitrile] | ≤ 100 nM |  |
| CC(Cc1nc2c(ncn2CC(F)F)c(=O)n1-c1ccc(Cl)cc1)C(F)(F)F (stereo not shown) [Compound 22, 1-(4-chlorophenyl)-9-(2,2-difluoroethyl)-2-(3,3,3-trifluoro-2-methylpropyl)-1,9-dihydro-6H-purin-6-one] | ≤ 100 nM |  |
| CCn1cnc2c(=O)n(-c3ccc(Cl)cc3)c(CC(C)CC(F)(F)F)nc21 (stereo not shown) [Compound 11, 1-(4-chlorophenyl)-9-ethyl-2-(4,4,4-trifluoro-2-methylbutyl)-1,9-dihydro-6H-purin-6-one] | ≤ 100 nM |  |
| CCn1cnc2c(=O)n(-c3ccc(C#N)cc3)c(CC(C)C(F)(F)F)nc21 (stereo not shown) [Compound 36, 4-[9-ethyl-6-oxo-2-(3,3,3-trifluoro-2-methylpropyl)-6,9-dihydro-1H-purin-1-yl]benzonitrile] | ≤ 100 nM |  |
| CC(Cc1nc2c(ncn2CC(F)F)c(=O)n1-c1ccc(Cl)cc1)CC(F)(F)F (stereo not shown) [Compound 21, 1-(4-chlorophenyl)-9-(2,2-difluoroethyl)-2-(4,4,4-trifluoro-2-methylbutyl)-1,9-dihydro-6H-purin-6-one] | ≤ 100 nM |  |
| CCn1cnc2c(=O)n(-c3ccc(Cl)nc3)c(CC(C)C(F)(F)F)nc21 (stereo not shown) [Compound 7, 1-(6-chloropyridin-3-yl)-9-ethyl-2-(3,3,3-trifluoro-2-methylpropyl)-1,9-dihydro-6H-purin-6-one] |  | ≤ 100 nM |
| CC(Cc1nc2c(ncn2C)c(=O)n1-c1ccc(F)cc1)CC(F)(F)F (stereo not shown) [Compound 14, 1-(4-fluorophenyl)-9-methyl-2-(4,4,4-trifluoro-2-methylbutyl)-1,9-dihydro-6H-purin-6-one] | ≤ 100 nM |  |
| CC(Cc1nc2c(ncn2CC(F)(F)F)c(=O)n1-c1ccc(Cl)cc1)CC(F)(F)F (stereo not shown) [Compound 20, 1-(4-chlorophenyl)-9-(2,2,2-trifluoroethyl)-2-(4,4,4-trifluoro-2-methylbutyl)-1,9-dihydro-6H-purin-6-one] | ≤ 100 nM |  |
| CC(Cc1nc2c(ncn2C)c(=O)n1-c1ccc(C#N)cc1)CC(F)(F)F (stereo not shown) [Compound 29, 4-[9-methyl-6-oxo-2-(4,4,4-trifluoro-2-methylbutyl)-6,9-dihydro-1H-purin-1-yl]benzonitrile] | ≤ 100 nM |  |
| CC(Cc1nc2cccnc2c(=O)n1-c1ccc(Cl)cc1)CC(F)(F)F (stereo not shown) [Compound 35, 3-(4-chlorophenyl)-2-(4,4,4-trifluoro-2-methylbutyl)pyrido[3,2-d]pyrimidin-4(3H)-one] | ≤ 100 nM |  |
| CC(Cc1nc2c(ncn2CC(F)F)c(=O)n1-c1ccc(F)cc1)CC(F)(F)F (stereo not shown) [Compound 26, 9-(2,2-difluoroethyl)-1-(4-fluorophenyl)-2-(4,4,4-trifluoro-2-methylbutyl)-1,9-dihydro-6H-purin-6-one] | ≤ 100 nM |  |
| CC(Cc1nc2c(ncn2C2CC2)c(=O)n1-c1ccc(Cl)cc1)CC(F)(F)F (stereo not shown) [Compound 15, 1-(4-chlorophenyl)-9-cyclopropyl-2-(4,4,4-trifluoro-2-methylbutyl)-1,9-dihydro-6H-purin-6-one] | ≤ 100 nM |  |
| CC(Cc1nc2c(ncn2CC(F)(F)F)c(=O)n1-c1ccc(Cl)cc1)C(F)(F)F (stereo not shown) [Compound 24, 1-(4-chlorophenyl)-9-(2,2,2-trifluoroethyl)-2-(3,3,3-trifluoro-2-methylpropyl)-1,9-dihydro-6H-purin-6-one] | ≤ 100 nM |  |
